Measurements published in the RepoRT retention time repository (doi:10.1016/j.scitotenv.2015.08.078).

Experiment: RP, Waters ACQUITY UPLC BEH C18, 100 × 2.1 mm, 1.7 µm, 0.3 mL/min, estimated dead time 0.73 min; A: water + 0.1% formic acid, pH 3; B: methanol + 0.1% formic acid, pH 3; gradient (min/%B) 0/10 14/90 16/90 18/10
Conditions: stereoisomer not certain

Structure (SMILES)	LC retention time
CCN(CC)c1nc(C)cc(OP(=S)(OC)OC)n1 [Pirimiphos-methyl]	12.4 min
CCC(C)C(=O)OC1CC(O)C=C2C=CC(C)C(CCC(O)CC(O)CC(=O)O)C21 (stereo not drawn) [Pravastatin]	7.96 min
O=C(C1CCCCC1)N1CC(=O)N2CCc3ccccc3C2C1 (stereo not drawn) [Praziquantel]	10.1 min
CC(=O)OCC(=O)C1(O)CCC2C3CCC4=CC(=O)C=CC4(C)C3C(O)CC21C (stereo not drawn) [Prednisolone 21-acetate]	9.54 min
CCCOCCN(C(=O)CCl)c1c(CC)cccc1CC [Pretilachlor]	12.5 min
COC(=O)c1ccccc1S(=O)(=O)NC(=O)Nc1nc(OC(F)F)cc(OC(F)F)n1 [Primisulfuron-methyl]	8.86 min
CCN(CC)CCOC(=O)c1ccc(N)cc1 [Procaine]	2.19 min
CCCSP(=O)(OCC)Oc1ccc(Br)cc1Cl (stereo not drawn) [Profenofos]	12.7 min
CNC(=O)Oc1cc(C)cc(C(C)C)c1 [Promecarb]	10.3 min
CC(CN1c2ccccc2Sc2ccccc21)N(C)C (stereo not drawn) [Promethazine]	9.06 min
CSc1nc(NC(C)C)nc(NC(C)C)n1 [Prometryn]	10.8 min
CC(C)N(C(=O)CCl)c1ccccc1 [Propachlor]	8.99 min
CCCOC(=O)NCCCN(C)C [Propamocarb]	2.28 min
CCC(=O)Nc1ccc(Cl)c(Cl)c1 [Propanil]	10.3 min
CC(C)=NOCCOC(=O)C(C)Oc1ccc(Oc2cnc3cc(Cl)ccc3n2)cc1 (stereo not drawn) [Propaquizafop]	12.9 min
CC(C)Nc1nc(Cl)nc(NC(C)C)n1 [Propazine]	9.88 min
CCNP(=S)(OC)OC(C)=CC(=O)OC(C)C (stereo not drawn) [Propetamphos]	10.6 min
CCCC1COC(Cn2cncn2)(c2ccc(Cl)cc2Cl)O1 (stereo not drawn) [Propiconazole]	12.5 min
CNC(=O)Oc1ccccc1OC(C)C [Propoxur]	7.36 min
C#CC(C)(C)NC(=O)c1cc(Cl)cc(Cl)c1 [Propyzamide]	10.3 min
CCCN(CCC)C(=O)SCc1ccccc1 [Prosulfocarb]	12.6 min
CC1=NNC(=O)N(N=Cc2cccnc2)C1 [Pymetrozine]	2.25 min

Structure (SMILES)	LC retention time
CCCSP(=O)(OCC)Oc1cnn(-c2ccc(Cl)cc2)c1 (stereo not drawn) [Pyraclofos]	12 min
CCOC(=O)c1cn2nc(OP(=S)(OCC)OCC)cc2nc1C [Pyrazophos]	11.9 min
CCOC(=O)c1cnn(C)c1S(=O)(=O)NC(=O)Nc1nc(OC)cc(OC)n1 [Pyrazosulfuron-ethyl]	7.91 min
C=CC=CCC1=C(C)C(OC(=O)C2C(C=C(C)C)C2(C)C)CC1=O (stereo not drawn) [Pyrethrin I]	13.7 min
CC(C)(C)c1ccc(CSc2cnn(C(C)(C)C)c(=O)c2Cl)cc1 [Pyridaben]	14 min
CCOP(=S)(OCC)Oc1ccc(=O)n(-c2ccccc2)n1 [Pyridaphenthion]	12.1 min
CCCCCCCCSC(=O)Oc1cc(Cl)nnc1-c1ccccc1 [Pyridate]	14.3 min
CCc1nc(N)nc(N)c1-c1ccc(Cl)cc1 [Pyrimethamine]	7.2 min
Cc1cc(C)nc(Nc2ccccc2)n1 [Pyrimethanil]	9.86 min
CC(COc1ccc(Oc2ccccc2)cc1)Oc1ccccn1 (stereo not drawn) [Pyriproxyfen]	14 min
O=C1CCc2cccc3c2N1CC3 [Pyroquilon]	7.09 min
CCOP(=S)(OCC)Oc1cnc2ccccc2n1 [Quinalphos]	11.3 min
Cc1cnc2c(C(=O)O)c(Cl)ccc2c1 [Quinmerac]	3.44 min
COC(=O)C(C)Oc1ccc(Oc2cnc3cc(Cl)ccc3n2)cc1 (stereo not drawn) [Quizalofop methyl]	12.1 min
CC(CCc1ccc(O)cc1)NCC(O)c1ccc(O)cc1 (stereo not drawn) [Ractopamine]	4.5 min
COC(=O)C1C2CC3c4[nH]c5cc(OC)ccc5c4CCN3CC2CC(OC(=O)c2cc(OC)c(OC)c(OC)c2)C1OC (stereo not drawn) [Reserpine]	8.76 min
CCS(=O)(=O)c1cccnc1S(=O)(=O)NC(=O)Nc1nc(OC)cc(OC)n1 [Rimsulfuron]	5.84 min
NC(=NN=Cc1ccc(Cl)cc1)NN=Cc1ccc(Cl)cc1 [Robenidine]	10.9 min
Cn1c([N+](=O)[O-])cnc1COC(N)=O [Ronidazole]	1.79 min
CCC1OC(=O)C(C)C(OC2CC(C)(OC)C(O)C(C)O2)C(C)C(OC2OC(C)CC(N(C)C)C2O)C(C)(O)CC(C)C(=NOCOCCOC)C(C)C(O)C1(C)O (stereo not drawn) [Roxithromycin]	10.7 min
CC(C)(C)NCC(O)c1ccc(O)c(CO)c1 (stereo not drawn) [Salbutamol]	2.03 min
O=C(O)c1ccccc1O [Salicylic acid]	4.4 min

Structure (SMILES)	LC retention time
CCC(C(=O)O)C1CCC(C)C(C(C)C(O)C(C)C(=O)C(CC)C2OC3(C=CC(O)C4(CCC(C)(C5CCC(O)(CC)C(C)O5)O4)O3)C(C)CC2C)O1 (stereo not drawn) [Salinomycin]	15.9 min
O=C(O)c1cn(-c2ccc(F)cc2)c2cc(N3CCNCC3)c(F)cc2c1=O [Sarafloxacin]	5.12 min
CCCC(=NOCC)C1C(=O)CC(CC(C)SCC)CC1=O (stereo not drawn) [Sethoxydim]	11.8 min
CC1CCCCC1NC(=O)Nc1ccccc1 (stereo not drawn) [Siduron A]	9.88 min
CCNc1nc(Cl)nc(NCC)n1 [Simazine]	7.91 min
CCNc1nc(NCC)nc(SC)n1 [Simetryn]	8.78 min
CCC(C)(C)C(=O)OC1CC(C)C=C2C=CC(C)C(CCC3CC(O)CC(=O)O3)C21 (stereo not drawn) [Simvastatin]	14.2 min
CCC1CCCC(OC2CCC(N(C)C)C(C)O2)C(C)C(=O)C2=CC3C(C=CC4CC(OC5OC(C)C(OC)C(OC)C5OC)CC43)C2CC(=O)O1 (stereo not drawn) [Spinosyn A]	12 min
CCC1CCCC(OC2CCC(N(C)C)C(C)O2)C(C)C(=O)C2=CC3C(C=C(C)C4CC(OC5OC(C)C(OC)C(OC)C5OC)CC43)C2CC(=O)O1 (stereo not drawn) [Spinosyn D]	12.5 min
CCCN(CC)CC1COC2(CCC(C(C)(C)C)CC2)O1 (stereo not drawn) [Spiroxamine]	10 min
CC12Cc3cn[nH]c3CC1CCC1C2CCC2(C)C1CCC2(C)O (stereo not drawn) [Stanozolol]	12 min
Nc1ccc(S(=O)(=O)NC(=O)c2ccccc2)cc1 [Sulfabenzamide]	3 min
Nc1ccc(S(=O)(=O)Nc2ncccn2)cc1 [Sulfadiazine]	2.09 min
COc1ncnc(NS(=O)(=O)c2ccc(N)cc2)c1OC [Sulfadoxine]	5 min
Cc1ccnc(NS(=O)(=O)c2ccc(N)cc2)n1 [Sulfamerazine]	2.75 min
COc1cnc(NS(=O)(=O)c2ccc(N)cc2)nc1 [Sulfameter]	3.2 min
Cc1cc(C)nc(NS(=O)(=O)c2ccc(N)cc2)n1 [Sulfamethazine]	3.59 min
Cc1nnc(NS(=O)(=O)c2ccc(N)cc2)s1 [Sulfamethiazole]	3.19 min
Cc1cc(NS(=O)(=O)c2ccc(N)cc2)no1 [Sulfamethoxazole]	3.91 min
COc1ccc(NS(=O)(=O)c2ccc(N)cc2)nn1 [Sulfamethoxypyridazine]	3.65 min
CC(=O)Nc1ccc(S(=O)(=O)Nc2ccc([N+](=O)[O-])cc2)cc1 [Sulfanitran]	7.27 min
Nc1ccc(S(=O)(=O)Nc2ccccn2)cc1 [Sulfapyridine]	2.55 min

Structure (SMILES)	LC retention time
Nc1ccc(S(=O)(=O)Nc2nccs2)cc1 [Sulfathiazole]	2.26 min
CCS(=O)(=O)c1nc2ccccn2c1S(=O)(=O)NC(=O)Nc1nc(OC)cc(OC)n1 [Sulfosulfuron]	6.42 min
CCOP(=S)(OCC)OP(=S)(OCC)OCC [Sulfotep]	11.5 min
CCCSP(=S)(OCC)Oc1ccc(SC)cc1 (stereo not drawn) [Sulprofos]	14.2 min
CC(=O)OCC12CC(OC(=O)CC(C)C)C(C)=CC1OC1C(O)C(OC(C)=O)C2(C)C12CO2 (stereo not drawn) [T2 Toxin]	9.98 min
CCCCCc1cc(O)c2c(c1)OC(C)(C)C1CC=C(C(=O)O)CC21 (stereo not drawn) [THC-COOH]	13.9 min
CCCCCc1cc(O)c2c(c1)OC(C)(C)C1CCC(C)=CC21 (stereo not drawn) [THC]	15.2 min
CC(C)(C)C(O)(CCc1ccc(Cl)cc1)Cn1cncn1 (stereo not drawn) [Tebuconazole]	11.8 min
CCc1ccc(C(=O)NN(C(=O)c2cc(C)cc(C)c2)C(C)(C)C)cc1 [Tebufenozide]	11.5 min
CCc1nn(C)c(C(=O)NCc2ccc(C(C)(C)C)cc2)c1Cl [Tebufenpyrad]	13.2 min
CC(C)N(Cc1ccccc1)C(=O)C(C)(C)C [Tebutam]	11.1 min
CNC(=O)N(C)c1nnc(C(C)(C)C)s1 [Tebuthiuron]	7.79 min
O=C(NC(=O)c1c(F)cccc1F)Nc1cc(Cl)c(F)c(Cl)c1F [Teflubenzuron]	13 min
CN1C(=O)C(O)N=C(c2ccccc2)c2cc(Cl)ccc21 (stereo not drawn) [Temazepam]	10.1 min
COP(=S)(OC)Oc1ccc(Sc2ccc(OP(=S)(OC)OC)cc2)cc1 [Temephos (Abate)]	13 min
Cc1[nH]c(=O)n(C(C)(C)C)c(=O)c1Cl [Terbacil]	7.42 min
CN(CC=CC#CC(C)(C)C)Cc1cccc2ccccc12 [Terbinafine]	13.7 min
CCNc1nc(NC(C)(C)C)nc(OC)n1 [Terbumeton]	8.02 min
CCNc1nc(Cl)nc(NC(C)(C)C)n1 [Terbuthylazine]	10.5 min
CCNc1nc(NC(C)(C)C)nc(SC)n1 [Terbutryn]	9.91 min
Cc1ncc([N+](=O)[O-])n1CCCO [Ternidazole]	2.89 min
FC(F)C(F)(F)OCC(Cn1cncn1)c1ccc(Cl)cc1Cl (stereo not drawn) [Tetraconazole]	11.6 min
